# Key:
# 293T cells = assay: Apoptosis and viability of untransfected 293T cells (annexin V / 7AAD); assay type: cell-based, human; settings: within 24 hr at concentrations used
# Description: The cells were grown in DME medium (Sigma) and Jurkat cells in RPMI medium (Sigma), both supplemented with penicillin, streptomycin and 8% FBS. Quantitation of apoptosis and viability was performed with a BD FACSCalibur™ system using Annexin V-PE Apoptosis Detection Kit I (BD Biosciences, San Jose Calif.).
# [1] = target: T1, deoxyhypusine hydroxylase (Homo sapiens, UniProt Q9BU89); assay: Deoxyhypusine hydroxylase activity in H9-HIV cells (peptide-bound hypusine / deoxyhypusine); assay type: cell-based
# T1 construct: endogenous in cells; host or cells: H9-HIV cells (H9 infected with HIV-1 HTLV-IIIB)
# T1 sequence (Q9BU89 1-302): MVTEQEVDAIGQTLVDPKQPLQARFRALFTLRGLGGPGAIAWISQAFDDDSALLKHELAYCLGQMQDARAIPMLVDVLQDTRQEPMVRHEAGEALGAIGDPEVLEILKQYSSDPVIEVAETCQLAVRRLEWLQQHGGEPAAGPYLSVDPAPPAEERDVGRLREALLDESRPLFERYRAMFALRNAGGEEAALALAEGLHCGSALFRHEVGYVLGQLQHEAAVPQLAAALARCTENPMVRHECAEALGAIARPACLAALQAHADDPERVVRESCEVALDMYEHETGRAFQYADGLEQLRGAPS
# From the text: FIGS. 11A-D are a set of diagrams showing drug-activated apoptosis and iron chelation. A. Covalent structures of the medicinal chelators DFOX and DEF, and of the antifungal agent CPX and its chelation homolog Agent P2. DFOX, CPX, and Agent P2 interact with iron via a hydroxamate moiety, similar to the chelating domain of DEF. Arrows indicate the uniform bidentate mode of metal binding. DFOX contains three of these moieties and is a hexadentate chelator. B. Effect of drugs and Agent P2 on the expression of iron-dependant (IRE; hatched bars) and retrovirally-encoded (HIV; filled bars) gene expression in transfected 293T cells. Results are expressed relative to untreated controls. C. […] Triangles, peptide-bound hypusine; squares, peptide-bound deoxyhypusine. D. Induction of apoptosis by CPX and by DFOX. H9-HIV cells were treated for 24 hr and then assayed by flow cytometry using TUNEL. Results are expressed as percentage of cells that are TUNEL-positive (±SEM).
# HIV p24 = assay: p24 expression from pNL4-3-LucE- molecular clone in 293T cells; assay type: cell-based, HIV-1; settings: 293T cell extract; 12 hr post-transfection
# Description: FIGS. 3A-D are a set of diagrams and photographs showing drug effects on luciferase expression from an HIV-1 molecular clone. A. Comparison of drug effects on luciferase expression from the pNL4-3-LucE- molecular clone in 293T cells. The molecular clone pNL4-3-LucE- and pCMV-Ren were transfected into 293T cells. Drugs were added where indicated at the following concentrations: P2 (30 μM), CPX (30 μM), DEF (250 μM), or DFOX (15 μM). Dual luciferase assays were conducted at 12 hr post-transfection. Firefly (FF) luciferase expression was normalized to Renilla luciferase (Ren) from pCMV-Ren (mean of 2 experiments in duplicate, ±SD). B. Expression in Jurkat cells was assayed essentially as in panel A. C. Firefly and Renilla luciferase RNA expression was analyzed in 293T cells treated as in panel A by RPA using 32P-[UTP] labeled antisense RNA probes corresponding to the C-termini of the FF and Ren luciferase mRNAs. D. Comparison of drug effects on p24 expression from the pNL4-3-LucE- molecular clone in 293T cells. Drugs were added where indicated to the same concentrations as in A. p24 levels were determined in cell extract at 12 hr post-transfection.
# p24 core antigen in the supernatant was quantified by ELISA (Retrotek HIV-1 p24™; ZeptoMetrix Corp.; Buffalo, N.Y.). HIV-1 RNA copy number in the supernatant was determined with a PCR-based and FDA-approved assay (Amplicor HIV-1 Monitor™; Roche Diagnostics Corp.; Indianapolis, Ind.). IFN-γ and IL-10 in the supernatant were determined by cytometric bead array (Human Th1/Th2 Cytokine Kit II™; BD Biosciences Pharmingen, San Jose, Calif.).
# eIF5A:DHS complex = target: T2, eIF5A:DHS complex (Homo sapiens, UniProt P49366); assay: Co-immunoprecipitation of eIF5A with DHS from 293T cell extracts; assay type: cell-based; settings: 293T transfected with FLAG-DHS
# T2 construct: expressed in transfected cells; host or cells: 293T cells (FLAG-DHS transfected, eIF5A endogenous)
# T2 sequence (P49366 1-369): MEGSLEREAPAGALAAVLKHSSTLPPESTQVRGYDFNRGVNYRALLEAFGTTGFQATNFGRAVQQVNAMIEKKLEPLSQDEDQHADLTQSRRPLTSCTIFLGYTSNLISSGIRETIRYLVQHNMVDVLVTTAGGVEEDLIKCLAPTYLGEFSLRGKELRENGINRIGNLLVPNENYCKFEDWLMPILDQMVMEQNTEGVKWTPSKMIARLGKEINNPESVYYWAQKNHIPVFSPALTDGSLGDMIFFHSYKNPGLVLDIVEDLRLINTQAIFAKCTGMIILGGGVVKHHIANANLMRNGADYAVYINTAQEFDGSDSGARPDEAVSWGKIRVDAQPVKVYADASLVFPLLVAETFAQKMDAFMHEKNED
# Description: Immunoprecipitation and immunoblotting experiments were carried out as described previously in Hoque et al. Mol Cell Biol 2003, 23:1688-1702.
# eIF5A forms tight complexes with its modifying enzymes. Unmodified eIF5A (lysine-50) immunoprecipitates with DHS and deoxyhypusyl-eIF5A interacts with DOHH in vitro. It was discovered that the deoxyhypusyl-eIF5A:DOHH complex formed in vivo can be detected by immunoprecipitation from cell extracts. Taking advantage of this finding, the effects of the drugs on the enzyme-substrate interaction were tested. FLAG-eIF5A was expressed in 293T cells and complexes that immunoprecipitated with anti-FLAG antibody were immunoblotted and probed with antibodies against DOHH. […] As a further control, the DHS inhibitor GC7 was included in this assay. […] As expected, none of the compounds affected the immunoprecipitation of FLAG-eIF5A (FIG. 2D, middle panel) or the expression of endogenous eIF5A (FIG. 2D, bottom panel). Reciprocally, the interaction between endogenous eIF5A and tagged DOHH was inhibited by CPX and DEF (FIG. 2E, right). Similarly, the interaction of endogenous eIF5A with tagged DHS was inhibited by GC7 (FIG. 2E, left) but resistant to CPX and DEF. It is concluded that CPX and DEF, but not P2 or DFOX, target DOHH and inhibit its interaction with its substrate, deoxyhypusylelF5A.
# [2] = human, in vivo, cited from earlier work
Structure (SMILES),293T cell death (293T cells),inhibition of deoxyhypusine hydroxylase activity / eIF5A hydroxylation [1],inhibition of HIV p24 expression from the molecular clone (HIV p24),interaction of endogenous eIF5A with tagged DHS (eIF5A:DHS complex),systemic absorption [2],concentration in serum ([2]; po),plasma levels ([2]; po)
"Cc1cc(C2CCCCC2)n(O)c(=O)c1 [CPX, 6-cyclohexyl-1-hydroxy-4-methylpyridin-2[1H]-one]",marginal 293T cell death,Dose-dependent inhibition of deoxyhypusine hydroxylase activity,~60%,resistant,miniscule systemic absorption,–,–
"Cc1ccn(O)c(=O)c1 [Agent P2, 1-hydroxy-4-methylpyridin-2[1H]-one]",–,failed to inhibit eIF5A hydroxylation in vivo or in vitro,–,–,–,–,–
"Cc1c(O)c(=O)ccn1C [DEF, 3-hydroxy-1,2-dimethylpyridin-4(1H)-one]",marginal 293T cell death,–,~60%,resistant,–,≥ 250 µM,up to 350 μM
